From article PMC6616128, “Liquiritin, as a Natural Inhibitor of AKR1C1, Could Interfere With the Progesterone Metabolism” (Frontiers in Physiology, 2019)
Where a chain is given by its changes, count along the chain named. Read-outs that look alike come from different tables or passages of the source.

What was measured:
[1] = biological target: T1, AKR1C1 (Homo sapiens, UniProt Q04828); test: Enzyme activity (NADPH) assay with s-tetralol, recombinant GST-AKR1C1; format: biochemical; set-up: made in house; host or cells: Escherichia coli JM109; conditions: for enzyme activity: CON 192.295568; for inhibition at 2 µM: read-out: % inhibition;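 on all read-outs here: GST-fused AKR1C1 expressed in E. coli and purified by glutathione affinity, control wells received DMSO instead of compound, duplicate samples from a single experiment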
T1 sequence (Q04828 1-323): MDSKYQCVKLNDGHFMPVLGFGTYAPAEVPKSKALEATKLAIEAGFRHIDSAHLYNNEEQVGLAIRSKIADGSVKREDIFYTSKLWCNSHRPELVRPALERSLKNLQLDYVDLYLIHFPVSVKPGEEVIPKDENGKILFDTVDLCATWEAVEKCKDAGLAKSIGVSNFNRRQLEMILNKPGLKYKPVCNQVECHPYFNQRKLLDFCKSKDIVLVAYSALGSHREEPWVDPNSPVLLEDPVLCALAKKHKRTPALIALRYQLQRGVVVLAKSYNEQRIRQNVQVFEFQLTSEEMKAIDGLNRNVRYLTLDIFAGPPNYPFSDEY
Description: GST-tagged recombinant AKR1C isoforms expressed JM109 was grown in Luria-Bertani broth (100 μg⋅ml-1 ampicillin, pH = 7.0) at 37°C with orbital shaking at 220 rpm. When cells achieved an OD600 nm between 0.4 and 0.6, 0.3 mM final concentration of isopropyl β-D-1-thiogalactopyranoside (IPTG) was added to the cultures and incubated for an additional 12 h at 25°C. Cells were harvested by centrifugation at 8000 g for 10 min, and the cell pellets were stored at -80°C for storage. The pellets were resuspended in 1 × PBS, pH = 7.4 and lysed by ultrasonication at ice-cold temperature using an UH-03 union instrument. The purification of glutathione-S-transferase (GST)-fusion AKR1C1, AKR1C2, and AKR1C3 were then carried out using ÄKTA systems from GE Healthcare as described in Handbook. The recombinant proteins were eluted in 50 mM Tris–HCl (pH = 8.0) with 20 mM reduced glutathione, fresh preparedly. Protein concentrations were determined using the Bradford protein assay kit. All proteins were aliquoted and stored at -80°C containing 20% glycerol.
(§1) To screen for the indicated inhibitor, the assay mixture was added with additional DMSO or 2 μM compounds. […] The inhibition patterns were determined by fitting initial velocity and inhibitor concentration into inhibition models using Graphpad Prism 6.0. All inhibition data were obtained from single experiments, with samples conducted in duplicate.
Firstly, we overexpressed recombinant human AKR1C in E. coli in the form of a GST-fusion protein, and then purified it by affinity chromatography on glutathione-Sepharose.
To screen for the inhibitors of AKR1C1, we developed a readily accessible indirect NADPH generating-based assay that can be used for high-throughput inhibitors screening. […] Wells were included containing enzyme and no inhibitor or 2 μM inhibitor.

[2] = biological target: T2, recombinant AKR1C2 (Homo sapiens, UniProt P52895); test: Enzyme activity (NADPH) assay with s-tetralol, recombinant GST-AKR1C2; format: biochemical; conditions: GST-AKR1C2; S-tetralol/NADP+
T2 construct: made in house; host or cells: Escherichia coli JM109
T2 sequence (P52895 1-323): T1 sequence (Q04828 1-323) with T38V, R47H, L54V, C87S, V151M, R170H, Q172L
Description: (§2) Protein concentrations were determined using the Bradford protein assay kit.
as §1
(§3) Each experiment was repeated three times and the differences among means were significant determined by Student t-text (^∗p < 0.05; ^∗∗p < 0.01; ^∗∗∗p < 0.001).

[3] = biological target: T3, recombinant AKR1C3 (Homo sapiens, UniProt P42330); conditions: GST-AKR1C3; S-tetralol/NADP+
T3 sequence (P42330 1-323): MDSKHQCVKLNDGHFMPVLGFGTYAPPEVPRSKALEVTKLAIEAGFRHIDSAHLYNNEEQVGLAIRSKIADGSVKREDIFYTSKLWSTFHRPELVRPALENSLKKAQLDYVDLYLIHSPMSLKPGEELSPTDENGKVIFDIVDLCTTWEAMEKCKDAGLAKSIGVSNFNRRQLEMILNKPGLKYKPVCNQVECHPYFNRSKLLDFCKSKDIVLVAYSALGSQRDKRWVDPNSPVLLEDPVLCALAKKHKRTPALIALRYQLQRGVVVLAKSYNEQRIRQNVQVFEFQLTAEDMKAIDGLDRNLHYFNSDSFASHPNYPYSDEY
Description: as §2, §1, §3

[4] = 2 μM compound, Supplementary Table 1
[5] = 2 μM compound, Supplementary Table 1, CON 0.0122
[6] = 2 μM compound, Supplementary Table 1, CON = 1
[7] = 2 μM compound, Supplementary Table 1, CON = 1, read-out: ratio (activity relative to CON)

Row | Compound | % inhibition [1, 4] [%] | slope [1, 5] | enzyme activity [1, 4] [nmol/min/mg] | ratio (activity relative to CON) [1, 6] | remaining activity at 2 µM [1, 7] [%] | inhibition at 2 µM [1, 4] [%] | other results
1 | COc1cc(C(=O)OCCCCN=C(N)N)cc(OC)c1O.Cl [Leonurine hydrochloride] | 40.77 | 0.007226 | 113.8912 | 0.5923 | – | – | –
2 | O=c1c2cc(O)c(O)cc2oc2cc(O)c([C@@H]3O[C@H](CO)[C@@H](O)[C@H](O)[C@H]3O)c(O)c12 [Mangiferin] | – | 0.009429 | 148.6125 | – | 77.3 | 22.7 | –
3 | COc1ccc(-c2cc(=O)c3c(OC)c(OC)c(OC)c(OC)c3o2)cc1OC [Nobiletin] | – | 0.0127 | 200.1315 | – | 104 | -4.07 | –
4 | CC1(C)O[C@H]1COc1c2ccoc2cc2oc(=O)ccc12 [Oxypeucedanin] | – | 0.0122 | 192.3856 | – | 100 | -0.05 | –
5 | C[C@H]1CC[C@@H]2N(C1)C[C@H]1[C@@H]3C[C@H]4[C@@H](C[C@H](O)[C@H]5C[C@@H](O)CC[C@@]54C)[C@@H]3CC[C@@H]1[C@]2(C)O [Peimine] | 4.66 | 0.0116 | 183.3338 | 0.9534 | – | – | –
6 | COc1cc(C(=O)O[C@H]2[C@@H]3C=CO[C@@H](O[C@@H]4O[C@H](CO)[C@@H](O)[C@H](O)[C@H]4O)[C@@H]3[C@@]3(CO)O[C@@H]23)ccc1O [Picroside Ⅱ] | – | 0.006957 | 109.658 | – | 57 | 43 | –
7 | COc1c2c(cc3oc(CO[C@@H]4O[C@H](CO)[C@@H](O)[C@H](O)[C@H]4O)cc(=O)c13)O[C@H](C(C)(C)O)C2 [Prim-O-glucosylcimifugin] | -1.55 | 0.0124 | 195.2678 | 1.0155 | – | – | –
8 | O=c1ccc2cc3ccoc3cc2o1 [Psoralen] | – | 0.0116 | 182.8834 | – | 95.1 | 4.89 | –
9 | CC(C)=CCc1cc2c(cc1O)oc(=O)c1c3ccc(O)cc3oc21 [Psoralidin] | 2.25 | 0.0119 | 187.9723 | 0.9775 | – | – | –
10 | C[C@@H]1O[C@@H](Oc2c(-c3ccc(O)c(O)c3)oc3cc(O)cc(O)c3c2=O)[C@H](O)[C@H](O)[C@H]1O [Quercitrin] | – | 0.0114 | 180.0013 | – | 93.6 | 6.39 | –
11 | O[C@H]1CCCc2ccccc21 [S-tetralol, S-(+)-1,2,3,4-tetrahydro-1-naphthol] | – | – | – | – | – | – | Kcat ([1]; GST-AKR1C1, S-tetralol/NADP+): 0.2065 s⁻¹; Km ([1]; GST-AKR1C1, S-tetralol/NADP+): 23.5 µM; Vmax ([1]; GST-AKR1C1, S-tetralol/NADP+): 203.10 nmol/min/mg; catalytic efficiency ([1]; recombinant AKR1C1): 0.53 min^-1/μM^-1; Kcat [2]: 0.0962 s⁻¹; Km [2]: 103 µM; Vmax [2]: 94.58 nmol/min/mg; Kcat [3]: 0.553 s⁻¹; Km [3]: 851 µM; Vmax [3]: 543.90 nmol/min/mg
12 | C[C@H]1O[C@@H](O[C@H]2CC[C@@]3(C)[C@@H](CC[C@]4(C)[C@@H]3C=C[C@]35OC[C@@]6(CCC(C)(C)C[C@H]63)[C@@H](O)C[C@]54C)[C@]2(C)CO)[C@H](O)[C@@H](O[C@@H]2O[C@H](CO)[C@@H](O)[C@H](O)[C@H]2O)[C@H]1O [Saikosaponin A] | – | 0.0115 | 181.6675 | – | 94.5 | 5.53 | –
13 | C[C@H]1O[C@@H](O[C@H]2CC[C@@]3(C)[C@@H](CC[C@]4(C)[C@@H]3C=C[C@]35OC[C@@]6(CCC(C)(C)C[C@H]63)[C@H](O)C[C@]54C)[C@]2(C)CO)[C@H](O)[C@@H](O[C@@H]2O[C@H](CO)[C@@H](O)[C@H](O)[C@H]2O)[C@H]1O [Saikosaponin D] | 5.41 | 0.0115 | 181.8927 | 0.9459 | – | – | –
14 | COc1cc2c(c(OC)c1OC)-c1c(cc(OC)c(OC)c1OC)C[C@H](C)[C@H](C)C2 [Schisandrin A] | – | 0.0133 | 209.2284 | – | 109 | -8.81 | –
15 | COc1cc2c(c(OC)c1OC)-c1c(cc(OC)c(OC)c1OC)C[C@](C)(O)[C@@H](C)C2 [Schisandrol A] | -12.27 | 0.0137 | 215.8934 | 1.1227 | – | – | –
16 | COc1cc2c(c(OC)c1OC)-c1c(cc3c(c1OC)OCO3)C[C@H](C)[C@@](C)(O)C2 [Schisandrol B] | – | 0.0137 | 215.6683 | – | 112 | -12.2 | –

Row | Compound | % inhibition [1, 4] [%] | slope [1, 5] | enzyme activity [1, 4] [nmol/min/mg] | ratio (activity relative to CON) [1, 6] | remaining activity at 2 µM [1, 7] [%] | inhibition at 2 µM [1, 4] [%] | other results
17 | COc1cc2c(c(OC)c1OC)-c1c(cc3c(c1OC)OCO3)CC(C)C(C)C2 (stereo not drawn) [Schizandrin B] | -23.91 | 0.0151 | 238.2754 | 1.2391 | – | – | –
18 | CC(C)=CC[C@@H](O)C1=CC(=O)c2c(O)ccc(O)c2C1=O [Shikonin] | – | 0.0134 | 210.4443 | – | 109 | -9.44 | –
19 | O=C([O-])C(O)Cc1ccc(O)c(O)c1.[Na+] (stereo not drawn) [Sodium Danshensu] | 14 | 0.0105 | 165.3652 | 0.86 | – | – | –
20 | COc1ccc(-c2cc(=O)c3c(OC)c(OC)c(OC)c(OC)c3o2)cc1 [Tangeretin] | – | 0.0133 | 209.3185 | – | 109 | -8.85 | –
21 | COc1ccc2c(c1)CC=C(CO)c1cc3c(cc1-2)OCO3 [Tenuifolin] | – | 0.007214 | 113.7111 | – | 59.1 | 40.9 | –
22 | COc1c(O)cc(O)c2c(=O)cc(-c3ccccc3)oc12 [Wogonin] | – | 0.00272 | 42.8725 | – | 22.3 | 77.7 | remaining activity at 2 µM ([1]; 2 μM compound, Figure 1A, read-out: % Enzyme Activity): 22.3%; remaining activity at 2 µM ([1]; 2 μM compound, text on Figure 1A, read-out: inhibitory effect over AKR1C1 enzyme activity (% inhibition)): 22.3%
23 | COc1c(O[C@@H]2O[C@H](C(=O)O)[C@@H](O)[C@H](O)[C@H]2O)cc(O)c2c(=O)cc(-c3ccccc3)oc12 [Wogonoside] | -8.88 | 0.0133 | 209.3635 | 1.0888 | – | – | –
24 | (+)-Catechin hydrate | -7.87 | 0.0132 | 207.427 | 1.0787 | – | – | –
25 | Echinacoside | -7.12 | 0.0131 | 205.9859 | 1.0712 | – | – | –
26 | Ginkgolide B | 34.68 | 0.007969 | 125.6001 | 0.6532 | – | – | –
27 | Ginkgolide C | 31.9 | 0.008309 | 130.9591 | 0.681 | – | – | –
28 | Hydroxysafflor yellow A | 27.82 | – | 138.7951 | 0.7218 | – | – | slope [1]: 0.008806
29 | Pseuginsenoside F11 | 4.75 | 0.0116 | 183.1536 | 0.9525 | – | – | –
30 | Salvianolic acid B | 31.38 | 0.008371 | 131.9499 | 0.6862 | – | – | –
31 | Schisantherin A | -8.57 | 0.0132 | 208.778 | 1.0857 | – | – | –
